Experimental data reported in patent US20190201430A1, “TREATING OCULAR NEOVASCULARIZATION” (Massachusetts Eye and Ear Infirmary, priority 2014, published 2019).

Key:
Format in all cases: cell-based, human
c-Abl = test: Western blotting of H2O2 induced c-Abl phosphorylation in HUVEC; details: AICAR 2 mM 2 h
Experimental: HUVECs (Lonza, Walkersville, Md.) were cultured in Endothelial Growth Medium (EGM, Lonza, Walkersville, Md.). For all experiments, cells were grown at 37° C. in a humidified atmosphere of 5% CO2 and 95% air. Experiments were performed on cells below passage 3 to 6 grown to 80-90% confluence.
Protein extraction and western blotting were carried out as described previously (Morizane et al. JBC). Densitometric analysis of bands was performed using ImageJ software. Lane-loading differences were normalized by β-actin.
Cells were transfected with siRNAs using Nucleofection kit (Amaxa Biosysteins, Gaithersburg, Md.), following the manufacturer's protocol. The medium was changed at 6 h after transfection. The down-regulation of each protein was evaluated at 3 days after nucleofection.

HUVEC = test: Albumin endocytosis assay under H2O2 (Alexa555-BSA, confocal); details: AICAR 2 mM 2 h, then H2O2 2 mM 30 min, FIG. 1D
Experimental: After serum starvation for overnight, HUVECs were pretreated with AICAR (2 mM) for 2 h, and then stimulated with H2O2 (2 mM) for 30 min. We added BSA conjugated with Alexa 555 (50 μg/ml, Life Technologies, Gaithersburg, Md.) in the medium during the experiment. Cells on coverslips were washed three times with cold TBS and fixed in 100% methanol at −20° C. for 15 min. Cells were then permeabilized in 0.3% Triton X-100, 0.15% BSA in TBS with 0.05% Tween 20 (TBST) for 15 min at room temperature and blocked with 0.5% skim milk in TBST for 60 min at room temperature. Cells were incubated in p-caveolin-1 antibody diluted 1:200 and VE-cadherin antibody diluted 1:400 for overnight at 4° C., and then incubated for 2 h in secondary antibody diluted 1:300. Cells were then rinsed three times in TBST before mounting in Toto3 (Life Technologies, Gaithersburg, Md.). Images were acquired with confocal microscope, Leica TCS SP2 spectral confocal laser scanning microscope (Leica Microsystems, Wetzlar, Germany).

[1] = tested on: HUVECs cocultured with NHDFs; test: In vitro angiogenesis (tube formation) assay; details: AICAR 0.25, 0.5, 1.0, 2.0 mM; VEGF 12.5 ng/mL; FIG. 8A,B
Experimental: To evaluate the effects of AICAR on angiogenesis, HUVECs were cocultured with NHDFs in a 24-well plate with or without VEGF and AICAR. NHDF cells were seeded at 1.0×10^5 cells/well and then cultured for 2 wks to form a fibroblast cell sheet. […] Suramin (50 μM) was used as the inhibitor of VEGF. At 3, 7 and 10 days after treatment, cells were fixed at −20° C. in ethanol and acetone (1:1). Subsequently, cells were blocked with 1% bovine serum albumin (BSA) in phosphate-buffered saline for 30 min at room temperature, and then incubated with primary rabbit anti-human CD31 antibody overnight at 4° C. After the cells were washed with Tris-buffered saline (TBS), Alexa Flour 488 goat anti-rabbit IgG was applied for 2 h at room temperature. The tube length was quantified using a Kurabo Angiogenesis Image Analyzer (imaging software; Kurabo, Osaka, Japan).

VEGFR2/caveolin-1 = test: Immunoprecipitation of VEGFR2 with caveolin-1 under VEGF; details: AICAR 2 mM 2 h, VEGF 12.5 ng/mL 10 min; FIG. 8F,G
Experimental: Immunoprecipitation was performed with the Universal Magnetic Co-IP Kit (Active Motif North America, Carlsbad, Calif.) according to the manufacturer's instruction.

AMPK = test: Western blotting of AMPK phosphorylation in HUVECs (Example 2)
Experimental: Human umbilical vein endothelial cells (HUVECs) were cultured in endothelial growth medium (EGM, Lonza, Walkersville, Md.). Normal human dermal fibroblasts (NHDFs) were cultured in fibroblast basal medium (ATCC, Rockville, Md.). Cells were grown at 37° C. in a humidified atmosphere of 95% air, 5% CO2. Experiments were performed on cells below passage 3 to 6 grown to 80%-90% confluence.
Protein extraction and Western blotting were carried out as described previously (Morizane et al. JBC (26)). We conducted a densitometric analysis of bands using ImageJ software. Lane-loading differences were normalized by β-actin.

HUVEC monolayer = test: In vitro vascular permeability assay (Alexa 555-BSA leakage); details: AICAR 2 mM 2 h, VEGF 12.5 ng/mL 10 min; FIG. 10A
Experimental: We conducted the in vitro vascular permeability assay using Alexa Flour 555-labeled bovine serum albumin (BSA) (Invitrogen) and an In Vitro Vascular Permeability Assay kit (Millipore). According to the manufacturer's instructions, HUVECs were seeded at a density of 1×10^5 on a collagen-coated polystyrene filter. After a confluent monolayer was formed, each chamber was treated with AICAR or stimulated with VEGF. To measure endothelial permeability, 100 μL of Alexa Flour 555-BSA solution (0.050 mg/mL) was added into the insert and incubated for 10 min, and then the insert was removed and 100 μL medium was collected from the bottom chamber.
The fluorescent density of samples was analyzed on a SPECTRAmax GEMINI XS Microplate Spectrofluorometer (Molecular Devices, Sunnyvale, Calif.) at excitation and emission wavelengths of 555 nm and 565 nm, respectively.

HUVECs = test: Albumin endocytosis assay under VEGF; details: AICAR 2 mM 2 h, VEGF 12.5 ng/mL 10 min; FIG. 10B
Experimental: After overnight serum starvation, HUVECs were pretreated with AICAR (2 mM) for 2 h and then stimulated with VEGF (12.5 ng/mL) for 10 min. We added BSA conjugated with Alexa 555 (50 μg/mL, Life Technologies, Gaithersburg, Md.) in the medium during the experiment. Cells on coverslips were washed three times with cold TBS and fixed in 100% methanol at −20° C. for 15 min. Cells were then permeabilized in 0.3% Triton X-100, 0.15% BSA in TBS with 0.05% Tween 20 (TBST) for 15 min at room temperature, and blocked with 0.5% skim milk in TBST for 60 min at room temperature. Cells were incubated in p-caveolin-1 antibody diluted 1:200 and VE-cadherin antibody diluted 1:400 overnight at 4° C., and then incubated for 2 h in secondary antibody diluted 1:300. Cells were then rinsed three times in TBST before mounting in Toto3 (Life Technologies). Images were acquired with a Leica TCS SP2 spectral confocal laser scanning microscope (Leica Microsystems, Wetzlar, Germany).

## NC(=O)c1ncn([C@@H]2O[C@H](CO)[C@@H](O)[C@H]2O)c1N [AICAR, 5-Aminoimidazole-4-carboxamide riboside]
c-Abl; AMPKα1 or α2 siRNA HUVEC, H2O2 2 mM 30 min, FIG. 3
  inhibitory effect of AICAR on H2O2 induced c-Abl phosphorylation after knockdown of either AMPKα isoform: abolished
c-Abl; HUVEC, then H2O2 0.5-2.0 mM 30 min, FIG. 1A,C
  H2O2 induced phosphorylation of c-Abl: significantly suppressed
c-Abl; prdx1 siRNA HUVEC, H2O2 2 mM 30 min, FIG. 6A,C
  inhibitory effect of AICAR on H2O2 induced c-Abl phosphorylation in cells lacking prdx1: abolished
HUVEC
  H2O2 induced albumin endocytosis: suppressed
  caveolin-1 phosphorylation (immunofluorescence) in albumin endocytosis assay: suppressed
[1]
  VEGF-induced vascular tube formation (tube length): dose-dependent inhibition
VEGFR2/caveolin-1
  VEGFR2 dissociation from caveolin-1 upon VEGF stimulation: no effect
AMPK; AICAR 2 mM, presence or absence of VEGF, FIG. 9A,B
  AMPK phosphorylation on AICAR treatment (time course): resulted in AMPK and PTEN phosphorylation
AMPK; each concentration of AICAR for 2 h, FIG. 12A
  AMPK phosphorylation on AICAR administration: dose dependent AMPK phosphorylation
HUVEC monolayer
  VEGF-induced albumin leakage: significantly suppressed
HUVECs
  VEGF-induced albumin endocytosis: significantly suppressed
